Numbers after ± are expanded uncertainties.
Conditions: 101.33 kPa, Crystal, Small (less than 1 g) adiabatic calorimetry

Compound	molar entropy (10 K)	molar entropy (20 K)	molar entropy (30 K)	molar entropy (40 K)	molar entropy (50 K)	molar entropy (60 K)	molar entropy (70 K)	molar entropy (80 K)	molar entropy (90 K)	molar entropy (100 K)	molar entropy (120 K)	molar entropy (140 K)	molar entropy (160 K)	molar entropy (180 K)	molar entropy (200 K)	molar entropy (220 K)	molar entropy (240 K)	molar entropy (260 K)	molar entropy (280 K)	molar entropy (298.15 K)	further results
[Ba+2].[Ce+4].[O-2].[O-2].[O-2] [barium cerium(IV) oxide]	0.084 ± 0.025 J/K/mol	1.242 ± 0.042 J/K/mol	4.425 ± 0.15 J/K/mol	9.136 ± 0.21 J/K/mol	14.71 ± 0.29 J/K/mol	20.8 ± 0.38 J/K/mol	27.13 ± 0.48 J/K/mol	33.51 ± 0.58 J/K/mol	39.88 ± 0.71 J/K/mol	46.2 ± 0.8 J/K/mol	58.56 ± 0.99 J/K/mol	70.43 ± 1.2 J/K/mol	81.77 ± 1.4 J/K/mol	92.55 ± 1.5 J/K/mol	102.8 ± 1.7 J/K/mol	112.5 ± 1.8 J/K/mol	121.7 ± 2 J/K/mol	130.4 ± 2.1 J/K/mol	138.6 ± 2.2 J/K/mol	145.8 ± 2.3 J/K/mol	molar entropy (300 K): 146.6 ± 2.4 J/K/mol
[Ba+2].[O-2].[O-2].[O-2].[Zr+4] [barium zirconium(IV) oxide]	0.053 ± 0.024 J/K/mol	0.666 ± 0.033 J/K/mol	2.753 ± 0.13 J/K/mol	6.284 ± 0.17 J/K/mol	10.7 ± 0.23 J/K/mol	15.67 ± 0.3 J/K/mol	20.91 ± 0.38 J/K/mol	26.27 ± 0.46 J/K/mol	31.67 ± 0.59 J/K/mol	37.05 ± 0.67 J/K/mol	47.64 ± 0.83 J/K/mol	57.88 ± 0.98 J/K/mol	67.72 ± 1.1 J/K/mol	77.16 ± 1.3 J/K/mol	86.23 ± 1.4 J/K/mol	94.92 ± 1.6 J/K/mol	103.2 ± 1.7 J/K/mol	111.2 ± 1.8 J/K/mol	118.8 ± 1.9 J/K/mol	125.5 ± 2 J/K/mol	molar entropy (300 K): 126.2 ± 2 J/K/mol
